Data from patent US9453026B2, “ACC inhibitors and uses thereof” (Gilead Apollo, Inc., priority 2011, dated 2016).

target: ACC2 (Homo sapiens, UniProt O00763); experiment: In vitro ACC2 inhibition assay (ADP-Glo); assay type: biochemical; details: read-out: ACC2
Description: An exemplary procedure for the in vitro ACC inhibition assay, which can be used to determine the inhibitory action of compounds of the invention toward either ACC1 or ACC2, follows. The ADP-Glo™ Kinase Assay kit from Promega was used. The ADP-Glo™ Kinase Assay is a luminescent ADP detection assay to measure enzymatic activity by quantifying the amount of ADP produced during an enzyme reaction. The assay is performed in two steps; first, after the enzyme reaction, an equal volume of ADP-Glo™ Reagent is added to terminate the reaction and deplete the remaining ATP. Second, the Kinase Detection Reagent is added to simultaneously convert ADP to ATP and allow the newly synthesized ATP to be measured using a luciferase/luciferin reaction. Luminescence can be correlated to ADP concentrations by using an ATP-to-ADP conversion curve. The detailed procedure is as follows. 50 μL of the compound being tested (600 uM in DMSO) was added to a 384-well dilution plate. The compound was diluted 1:3 in succession in DMSO for each row for 11 wells. 0.5 μL ACC2 working solution was added to 384-well white Optiplate assay plate. 0.5 μL diluted compound solution in each column from step 2 to assay plate, each row containing 2 replicates. […] The plates were incubated at room temperature for 15 minutes. 5 μL substrate working solution was added to each well to initiate reaction. […] Plates were incubated at room temperature for 60 minutes. 10 μL ADP glo reagent was added. Plates were incubated at room temperature for 40 minutes. 20 μL kinase detection reagent was added.
Data for each concentration, as well as the positive and negative controls were averaged, and the standard deviation calculated. Percent inhibition was calculated by the formula: 100× (average negative control−compound)/(average negative control−average positive control). The IC50 for each compound was calculated by fitting the data with a non-linear regression equation: Y=Bottom+(Top-Bottom)/(1+10^((Log IC50−X)*HillSlope)), where X is the log of compound concentration and Y is percent inhibition.
The compound numbers correspond to the compound numbers in Table 1.

ACC2, sequence (O00763 whole entry, species assumed): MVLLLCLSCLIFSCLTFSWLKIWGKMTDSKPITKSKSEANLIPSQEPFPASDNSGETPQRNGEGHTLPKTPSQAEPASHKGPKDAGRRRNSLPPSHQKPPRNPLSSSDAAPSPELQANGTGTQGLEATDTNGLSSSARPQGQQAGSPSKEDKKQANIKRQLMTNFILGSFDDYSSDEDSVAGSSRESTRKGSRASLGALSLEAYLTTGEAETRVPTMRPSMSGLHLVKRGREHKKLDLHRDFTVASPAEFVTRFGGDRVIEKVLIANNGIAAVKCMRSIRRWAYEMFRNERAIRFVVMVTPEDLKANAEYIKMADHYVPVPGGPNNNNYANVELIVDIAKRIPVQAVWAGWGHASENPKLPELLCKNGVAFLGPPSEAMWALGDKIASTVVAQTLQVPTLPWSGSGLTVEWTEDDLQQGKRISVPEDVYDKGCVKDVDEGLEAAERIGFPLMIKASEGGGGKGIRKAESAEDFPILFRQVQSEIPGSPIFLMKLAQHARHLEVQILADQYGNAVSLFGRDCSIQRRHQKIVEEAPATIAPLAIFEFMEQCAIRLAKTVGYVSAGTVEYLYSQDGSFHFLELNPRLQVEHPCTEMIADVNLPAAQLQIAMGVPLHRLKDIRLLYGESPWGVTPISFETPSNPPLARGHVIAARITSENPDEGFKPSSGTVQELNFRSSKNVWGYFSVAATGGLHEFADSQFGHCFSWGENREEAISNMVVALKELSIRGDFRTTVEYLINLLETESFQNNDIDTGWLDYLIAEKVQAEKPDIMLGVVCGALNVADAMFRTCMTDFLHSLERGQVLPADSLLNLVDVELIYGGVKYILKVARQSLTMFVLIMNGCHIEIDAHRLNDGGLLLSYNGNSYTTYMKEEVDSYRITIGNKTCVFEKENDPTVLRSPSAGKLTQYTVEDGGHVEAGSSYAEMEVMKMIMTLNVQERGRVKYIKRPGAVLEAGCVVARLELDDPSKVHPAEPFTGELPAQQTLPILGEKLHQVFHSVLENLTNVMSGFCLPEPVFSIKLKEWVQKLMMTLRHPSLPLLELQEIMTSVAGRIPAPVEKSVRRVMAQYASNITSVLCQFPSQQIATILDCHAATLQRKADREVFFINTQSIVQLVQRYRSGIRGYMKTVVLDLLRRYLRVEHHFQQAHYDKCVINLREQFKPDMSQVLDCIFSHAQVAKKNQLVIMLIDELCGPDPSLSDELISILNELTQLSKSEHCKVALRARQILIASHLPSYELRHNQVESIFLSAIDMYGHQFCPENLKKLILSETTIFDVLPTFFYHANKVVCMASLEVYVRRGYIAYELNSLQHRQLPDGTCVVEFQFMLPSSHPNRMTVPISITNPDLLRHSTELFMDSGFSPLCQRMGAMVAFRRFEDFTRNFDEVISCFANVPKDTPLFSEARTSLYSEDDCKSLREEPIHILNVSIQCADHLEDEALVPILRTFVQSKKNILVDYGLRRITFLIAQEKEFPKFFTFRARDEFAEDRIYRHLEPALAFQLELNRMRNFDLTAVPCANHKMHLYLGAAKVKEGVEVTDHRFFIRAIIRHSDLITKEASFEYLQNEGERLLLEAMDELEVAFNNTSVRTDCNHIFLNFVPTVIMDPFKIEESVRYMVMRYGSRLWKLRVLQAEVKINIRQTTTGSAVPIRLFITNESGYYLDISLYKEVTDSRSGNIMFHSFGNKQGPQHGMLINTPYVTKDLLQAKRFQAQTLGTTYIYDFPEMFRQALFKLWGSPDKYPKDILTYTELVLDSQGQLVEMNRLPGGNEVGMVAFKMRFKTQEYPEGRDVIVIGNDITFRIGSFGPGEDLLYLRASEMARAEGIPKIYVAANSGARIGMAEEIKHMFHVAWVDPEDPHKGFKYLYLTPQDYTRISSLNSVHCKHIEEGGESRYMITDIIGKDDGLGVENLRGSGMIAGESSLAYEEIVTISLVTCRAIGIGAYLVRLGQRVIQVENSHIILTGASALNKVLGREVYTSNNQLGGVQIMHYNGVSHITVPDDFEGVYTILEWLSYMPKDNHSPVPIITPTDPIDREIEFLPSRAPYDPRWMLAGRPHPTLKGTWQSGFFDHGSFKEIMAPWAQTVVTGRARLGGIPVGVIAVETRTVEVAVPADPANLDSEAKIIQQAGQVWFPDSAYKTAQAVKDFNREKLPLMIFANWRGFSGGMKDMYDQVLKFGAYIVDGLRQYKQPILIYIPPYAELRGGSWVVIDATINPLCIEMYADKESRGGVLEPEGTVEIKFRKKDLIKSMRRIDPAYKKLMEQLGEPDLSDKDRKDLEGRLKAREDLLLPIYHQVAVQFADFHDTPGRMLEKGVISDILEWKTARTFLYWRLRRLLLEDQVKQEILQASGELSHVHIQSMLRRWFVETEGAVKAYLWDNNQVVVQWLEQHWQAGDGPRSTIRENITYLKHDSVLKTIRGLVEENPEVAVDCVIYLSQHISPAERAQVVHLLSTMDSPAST

| SMILES | IC50 [µM] |
| --- | --- |
| CCOC(=O)c1sc2c(c1C)c(=O)n(C(C)(C)C(=O)O)c(=O)n2CCc1ccc(I)cc1 [I-95, 2-[6-(ethoxycarbonyl)-1-[2-(4-iodophenyl)ethyl]-5-methyl-2,4-dioxo-1H,2H,3H,4H-thieno[2,3-d]pyrimidin-3-yl]-2-methylpropanoic acid] | 20 to 50 |
| CCOC(=O)c1sc2c(c1C)c(=O)n(C(C)(C)C(=O)O)c(=O)n2CCc1ccccc1O [I-99, 2-[6-(ethoxycarbonyl)-1-[2-(2-hydroxyphenyl)ethyl]-5-methyl-2,4-dioxo-1H,2H,3H,4H-thieno[2,3-d]pyrimidin-3-yl]-2-methylpropanoic acid] | < 5 |
| CCOC(=O)c1sc2c(c1C)c(=O)n(C(C)(C)C(N)=O)c(=O)n2CCc1ccccc1 [I-107, ethyl 3-(1-carbamoyl-1-methylethyl)-5-methyl-2,4-dioxo-1-(2-phenylethyl)-1H,2H,3H,4H-thieno[2,3-d]pyrimidine-6-carboxylate] | < 5 |
| CCOC(=O)c1sc2c(c1C)c(=O)n(C(C)(C)C(=O)O)c(=O)n2C[C@@H](OC)c1ccccc1 [I-111, 2-[6-(ethoxycarbonyl)-1-[(2S)-2-methoxy-2-phenylethyl]-5-methyl-2,4-dioxo-1H,2H,3H,4H-thieno[2,3-d]pyrimidin-3-yl]-2-methylpropanoic acid] | 5 to 20 |
| CCOC(=O)c1sc2c(c1C)c(=O)n(CC(N)=O)c(=O)n2C[C@@H](OC(C)C)c1ccccc1 [I-113, ethyl 3-(carbamoylmethyl)-5-methyl-2,4-dioxo-1-[(2S)-2-phenyl-2-(propan-2-yloxy)ethyl]-1H,2H,3H,4H-thieno[2,3-d]pyrimidine-6-carboxylate] | 20 to 50 |
| Cc1c(-n2cccn2)sc2c1c(=O)n(C(C)(C)C(=O)O)c(=O)n2CCc1ccccc1 [I-116, 2-methyl-2-[5-methyl-2,4-dioxo-1-(2-phenylethyl)-6-(1H-pyrazol-1-yl)-1H,2H,3H,4H-thieno[2,3-d]pyrimidin-3-yl]propanoic acid] | < 5 |
| CCOC(=O)c1sc2c(c1C)c(=O)n(C(C)(C)C(=O)O)c(=O)n2C[C@@H](OCC(C)C)c1ccccc1 [I-124, 2-[6-(ethoxycarbonyl)-5-methyl-1-[(2S)-2-(2-methylpropoxy)-2-phenylethyl]-2,4-dioxo-1H,2H,3H,4H-thieno[2,3-d]pyrimidin-3-yl]-2-methylpropanoic acid] | 5 to 20 |
| Cc1c(C2CCC2)sc2c1c(=O)n(C(C)(C)C(=O)O)c(=O)n2CCc1ccccc1 [I-125, 2-[6-cyclobutyl-5-methyl-2,4-dioxo-1-(2-phenylethyl)-1H,2H,3H,4H-thieno[2,3-d]pyrimidin-3-yl]-2-methylpropanoic acid] | 5 to 20 |
| CCOC(=O)c1sc2c(c1C)c(=O)n(C(C)(C)C(=O)O)c(=O)n2C[C@@H](OC(C)C)c1ccc(I)cc1 [I-126] | 20 to 50 |
| CCOC(=O)c1sc2c(c1C)c(=O)n(C(C)(C)C(=O)O)c(=O)n2C[C@H](OC(C)(C)C)c1ccccc1 [I-127, 2-[1-[(2R)-2-(tert-butoxy)-2-phenylethyl]-6-(ethoxycarbonyl)-5-methyl-2,4-dioxo-1H,2H,3H,4H-thieno[2,3-d]pyrimidin-3-yl]-2-methylpropanoic acid] | 20 to 50 |
| CCOC(=O)c1sc2c(c1C)c(=O)n(C(C)(C)C(=O)O)c(=O)n2C[C@@H](OC(C)(C)C)c1ccccc1 [I-128, 2-[1-[(2S)-2-(tert-butoxy)-2-phenylethyl]-6-(ethoxycarbonyl)-5-methyl-2,4-doxo-1H,2H,3H,4H-thieno[2,3-d]pyrimidin-3-yl]-2-methylpropanoic acid] | 20 to 50 |

Now from value to compound:

| IC50 [µM] | SMILES |
| --- | --- |
| < 5 | CCOC(=O)c1sc2c(c1C(F)(F)F)c(=O)n(CC(=O)O)c(=O)n2CCc1ccccc1 [I-94, 2-[6-(ethoxycarbonyl)-2,4-dioxo-1-(2-phenylethyl)-5-(trifluoromethyl)-1H,2H,3H,4H-thieno[2,3-d]pyrimidin-3-yl]acetic acid] |
| 5 to 20 | CCOC(=O)c1sc2c(c1C)c(=O)n(CC(=O)O)c(=O)n2CC(OC(=O)COC)c1ccccc1 (stereo not shown) [I-101, 2-[6-(ethoxycarbonyl)-1-[2-[(2-methoxyacetyl)oxy]-2-phenylethyl]-5-methyl-2,4-dioxo-1H,2H,3H,4H-thieno[2,3-d]pyrimidin-3-yl]acetic acid] |
| 5 to 20 | CCOC(=O)c1sc2c(c1C)c(=O)n(C(C)(C)C(=O)O)c(=O)n2C[C@@H](O)c1ccccc1 [I-102, 2-[6-(ethoxycarbonyl)-1-[(2S)-2-hydroxy-2-phenylethyl]-5-methyl-2,4-dioxo-1H,2H,3H,4H-thieno[2,3-d]pyrimidin-3-yl]-2-methylpropanoic acid] |
| 20 to 50 | CCOC(=O)c1sc2c(c1C)c(=O)n(CC(=O)O)c(=O)n2C[C@@H](OC)c1ccccc1 [I-104, 2-[6-(ethoxycarbonyl)-1-[(2S)-2-methoxy-2-phenylethyl]-5-methyl-2,4-dioxo-1H,2H,3H,4H-thieno[2,3-d]pyrimidin-3-yl]acetic acid] |
| < 5 | CCOC(=O)c1sc2c(c1C)c(=O)n(C(C)(C)C(=O)O)c(=O)n2CCc1ccccc1OC(F)(F)F [I-106, 2-[6-(ethoxycarbonyl)-5-methyl-2,4-dioxo-1-[2-[2-(trifluoromethoxy)phenyl]ethyl]-1H,2H,3H,4H-thieno[2,3-d]pyrimidin-3-yl]-2-methylpropanoic acid] |
| 5 to 20 | CCOC(=O)c1sc2c(c1C)c(=O)n(C(C)(C)C(=O)O)c(=O)n2C[C@@H](OC(C)C)c1ccccc1 [I-109, 2-[6-(ethoxycarbonyl)-5-methyl-2,4-dioxo-1-[(2S)-2-phenyl-2-(propan-2-yloxy)ethyl]-1H,2H,3H,4H-thieno[2,3-d]pyrimidin-3-yl]-2-methylpropanoic acid] |
| 20 to 50 | CCOC(=O)c1sc2c(c1C)c(=O)n(C(C)(C)C(N)=O)c(=O)n2C[C@@H](OC(C)C)c1ccccc1 [I-114, ethyl 3-(1-carbamoyl-1-methylethyl)-5-methyl-2,4-dioxo-1-[(2S)-2-phenyl-2-(propan-2-yloxy)ethyl]-1H,2H,3H,4H-thieno[2,3-d]pyrimidine-6-carboxylate] |
| < 5 | Cc1c(-c2ncco2)sc2c1c(=O)n(C(C)(C)C(=O)O)c(=O)n2CCc1ccccc1 [I-117, 2-methyl-2-[5-methyl-6-(1,3-oxazol-2-yl)-2,4-dioxo-1-(2-phenylethyl)-1H,2H,3H,34H-thieno[2,3-d]pyrimidin-3-yl]propanoic acid] |
| 20 to 50 | Cc1c(-n2ccnc2)sc2c1c(=O)n(C(C)(C)C(=O)O)c(=O)n2CCc1ccccc1 [I-118, 2-[6-(1H-imidazol-1-yl)-5-methyl-2,4-dioxo-1-(2-phenylethyl)-1H,2H,3H,4H-thieno[2,3-d]pyrimidin-3-yl]-2-methylpropanoic acid] |
| 5 to 20 | Cc1c(-c2ncco2)sc2c1c(=O)n(C(C)(C)C(=O)O)c(=O)n2C[C@@H](OC(C)C)c1ccccc1 [I-120, 2-methyl-2-[5-methyl-6-(1,3-oxazol-2-yl)-2,4-dioxo-1-[(2S)-2-phenyl-2-(propan-2-yloxy)ethyl]-1H,2H,3H,4H-thieno[2,3-d]pyrimidin-3-yl]propanoic acid] |
| < 1 | Cc1c(-n2nccn2)sc2c1c(=O)n(C(C)(C)C(=O)O)c(=O)n2CCc1ccccc1 [I-122, 2-methyl-2-[5-methyl-2,4-dioxo-1-(2-phenylethyl)-6-(2H-1,2,3-triazol-2-yl)-1H,2H,3H,4H-thieno[2,3-d]pyrimidin-3-yl]propanoic acid] |
